# Measured values as given in US7081481B2, “Excitatory amino acid receptor modulators” (Eli Lilly and Company, priority 2000, dated 2006).
# Biological target: T1, mGluR^2 (Homo sapiens, UniProt Q14416)
# T1 construct: expressed in transfected cells
# Test: [3H] LY341495 binding displacement at mGluR2
# Conditions: cells expressing human mGluR subtypes, radioligand [3H] LY341495, read-out: Ki, reversal of [3H] LY341495 binding
# Excerpt: (D. D. Schoepp, et al., Neuropharmacol., 1996, 35, 1661–1672 and 1997, 36, 1–11).
# (LY341495 is described in Ornstein et al., J. Med. Chem., 1998, 41, 346–357 and J. Med. Chem., 1998, 41, 358 to 378).
# T1 sequence (Q14416 19-872): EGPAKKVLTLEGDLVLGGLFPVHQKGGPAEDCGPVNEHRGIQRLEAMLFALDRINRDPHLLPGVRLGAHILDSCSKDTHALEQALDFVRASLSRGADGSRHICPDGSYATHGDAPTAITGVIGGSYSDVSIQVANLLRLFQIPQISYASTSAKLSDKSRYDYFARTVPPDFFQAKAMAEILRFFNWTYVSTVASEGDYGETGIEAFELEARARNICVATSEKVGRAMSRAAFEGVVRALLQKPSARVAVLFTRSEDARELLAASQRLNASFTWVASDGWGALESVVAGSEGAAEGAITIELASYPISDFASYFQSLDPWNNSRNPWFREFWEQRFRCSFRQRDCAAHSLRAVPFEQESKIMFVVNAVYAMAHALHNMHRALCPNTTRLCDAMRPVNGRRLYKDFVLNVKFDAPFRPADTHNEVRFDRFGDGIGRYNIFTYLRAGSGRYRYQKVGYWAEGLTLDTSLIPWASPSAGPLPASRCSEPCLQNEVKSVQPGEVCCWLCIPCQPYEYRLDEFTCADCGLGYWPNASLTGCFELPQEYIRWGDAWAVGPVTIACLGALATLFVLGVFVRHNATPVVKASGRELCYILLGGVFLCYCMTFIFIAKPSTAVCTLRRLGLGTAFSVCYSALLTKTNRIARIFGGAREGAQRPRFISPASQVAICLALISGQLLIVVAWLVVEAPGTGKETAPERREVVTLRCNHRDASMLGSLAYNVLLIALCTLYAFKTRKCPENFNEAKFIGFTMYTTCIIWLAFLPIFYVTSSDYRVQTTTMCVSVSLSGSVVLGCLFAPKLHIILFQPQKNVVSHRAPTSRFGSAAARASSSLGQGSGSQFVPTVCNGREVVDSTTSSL
compound,measurement,value
"N[C@@H](C(=O)O)[C@@H]1[C@H](COC(=O)Nc2ccccc2)[C@H]1C(=O)O (racemic) [Example 1, (2SR,1′SR,2′RS,3′RS)-2-(3′-phenylcarbamoyloxymethyl-2′-carboxycyclopropyl)glycine]",Ki,285 nM
